For one series, the system named is substance P. The note with it: comparison with capsaicin; prevents pain sensation without compromising touch or motor coordination; cited from earlier work.
Series [1] in a line: Use of capsaicin to induce salivation: application to oral mucosa of a human subject, saliva collected for 15 minutes. The series is classed as in vivo. The procedure:
A subject was used as a test subject to determine whether application of capsaicin to oral mucosa causes salivation. Approximately 0.25 inches of capsaicin (0.025% generic capsaicin cream) was applied to the oral mucosa. […] Saliva was collected for a period of about 15 minutes in a paper cup. The amount was compared to the amount of saliva collected for a period of 15 minutes before applying capsaicin to the oral mucosa. […] The increased salivation continued for approximately an hour. In preferred embodiments of the present invention, capsaicin or capsaicinoid is combined with one or more of the following: antihistamines such as Benadryl®, or other antihistamines, antibacterials, antifungals, antivirals, and/or antipruritis medications, such as those described above.

For series [2] the following is noted: cited from earlier work.

Molecules are shown by their SMILES.

As to `COc1cc(CNC(=O)CCCC/C=C\C(C)C)ccc1O` [Civamide, cis-capsaicin], in the series with substance P, the “depletion of substance P compared with capsaicin” value is recorded as “more effective than capsaicin in depleting substance P”.

Take `COc1cc(CNC(=O)CCCC/C=C/C(C)C)ccc1O` [capsaicin]: the “duration of increased salivation” value in series [1] (one subject, 0.025% capsaicin cream on oral mucosa) was “approximately an hour”. Further, in series [1] (one subject, about 0.25 inches of 0.025% capsaicin cream on oral mucosa, saliva collected about 15 minutes vs 15 minutes before application, estimated), the “increase in salivation relative to baseline level of salivation” value was “about two to three times the baseline level”. For the same compound, the “sensation reported by the subject after application” value in series [1] (within a few minutes of application, increased in intensity for about twenty minutes) was “warm feeling in the mouth”.

On to `CC[C@@H]1C(=O)OC[C@@H]1Cc1cncn1C` [pilocarpine], for which, in series [2] (patients experiencing xerostomia due to radiotherapy), the “stimulation of salivary glands” value is given as “effective in stimulating salivary glands”. Besides, the “side effects of treatment” value in series [2] (pilocarpine treatment) is “often associated with side effects involving heart, blood pressure, digestion and profuse sweating”.

These data come from patent US20030082249A1, “Compositions containing capsaicin and its derivatives, and their use in treating mucositis” (Ovation Pharmaceuticals, priority 2001, published 2003).
